Patent EP3436024B1, “3-BETA-METHOXY-PREG FOR USE IN THE TREATMENT OF TREATMENT RESISTANT DEPRESSION” (Mapreg, priority 2016, dated 2017)

Key:
Wistar Kyoto (WKY) rats [1] = test: Elevated-plus maze (EPM), WKY rats; format: in vivo, rat; conditions: acute, fluoxetine 10 mg/kg, Fig. 5D
Description: (§1) After a 6-day period of acclimatization, all experimental groups received daily successive subcutaneous (250 µl per rat) and intraperitoneal (1 ml/kg) injections. WI rats received injection of vehicle (sesame oil + saline) while WKY rats were randomly assigned to […], as follow: KWY rats receiving only vehicle (sesame oil + saline) and WKY rats treated with MAP4343 (10 mg/kg, s.c.; rats received in parallel i.p. injections of saline), fluoxetine (10 mg/kg i.p., rats received in parallel s.c. injections of sesame oil) or ketamine (30 mg/kg, i.p.; rats received in parallel s.c. injections of sesame oil) (see Figure 3).
(§2) After, a 6-day period of acclimatization, the acute phase of treatment started for 4 days during behavioral tests were performed (Figure 3). All animals were injected 1h30 before the starting of behavioral test.
We used the elevated-plus maze (EPM) as an assay of anxiety-related behavior in rodents (Walf and Frye, 2007). Rats were initially placed in the center of the plus-maze, consisting of two open arms (50 x 10 cm) and two closed arms (50 x 10 cm enclosed by 40 cm walls), in a 50 lux illuminated room and videotaped during 5 min using a computerized system (VideoTrack V2.5, ViewPoint, Lyon, France). The time spent in the open versus closed arms was blindly measured by two independent experimenters from the recorded video, and the open arm-index was calculated as follow: time in the open arms (sec) / [time in open arms (sec) + time in closed arms (sec)].

[2] = Body weight of treated WKY rats; format: in vivo; conditions: fluoxetine 10 mg/kg i.p., 4 days
Wistar Kyoto (WKY) rats [3] = test: Anxious-like behavior: activity in the central square of the open-field arena, WKY rats; format: in vivo, rat; conditions: acute, MAP4343 10 mg/kg s.c., fluoxetine 10 mg/kg i.p., ketamine 30 mg/kg i.p.
Description: as §1, §2
(§3) The animals were individually placed in the open field arena (OFA) (70 x 100 x 70 cm), with a central square (35 x 50 cm), located in a 50 lux illuminated room and videotaped during 3 min using a computerized system (VideoTrack V2.5, ViewPoint, Lyon, France).
(§4) OFA allows firstly the evaluation of total locomotor activity (LMA) thereby measuring the total distance travelled in the arena (in cm). Secondly, measurements of the activity in the center of the arena like (i) the number of entries in the center of arena and (ii) the total time spent in the center of arena (in sec) provide cues of anxiety-like behavior (Prut and Belzung, 2003). All these behavioral parameters were instantaneously measured automatically with the VideoTrack V2.5 software from the videos.

Wistar Kyoto (WKY) rats [4] = test: Locomotor activity in the open-field arena, WKY rats; format: in vivo, rat; conditions: acute, fluoxetine 10 mg/kg i.p., ketamine 30 mg/kg i.p., 3 min, Fig. 5A
Description: as §1, §2, §3, §4

Wistar Kyoto (WKY) rats [5] = test: Forced swimming test (FST), WKY rats; format: in vivo, rat; conditions: acute administration (4 days), MAP4343 10 mg/kg, fluoxetine 10 mg/kg i.p., ketamine 30 mg/kg i.p., Fig. 6C
Description: 3B-methoxy-PREG (also referred to as "MAP4343" in Example 4) was dissolved in sesame oil by sonication using a Sonifer-450 (Branson Ultrasonics Corporation, Danbury, USA) during 1 cycle of 5 pulses in sesame oil. Fluoxetine (Biotrend, Köln, Germany) and Ketamine (Sigma-Aldrich, St-Quentin Fallvier, France) were dissolved in sterile saline solution (NaCl 0.9%). The drug formulations were prepared freshly each day of treatment. MAP4343 was administered subcutaneously (ranging of 1-15 mg/Kg/day) while fluoxetine and ketamine were injected intraperitonealy (10 mg/Kg/day and 30 mg/Kg/day, respectively).
After a 6-day period of acclimatization, all experimental groups received daily successive subcutaneous (250 µl per rat) and intraperitoneal (1 ml/kg) injections. […]
Rats were submitted to the forced swimming test (FST), according the procedure initially described by (Detke et al., 1995) and slightly modified by (Bianchi et al., 2002). […] The pre-test and test sessions were recorded using a video camera placed above the cylinder for subsequent behavioral analysis. The immobility time (in sec) was blindly measured by two independent experimenters from recorded videos. […]
The effects of a dose-ranging administration of MAP4343 were tested in WI and WKY rats on their immobility time measured in FST.

In the case of `CNCCC(Oc1ccc(C(F)(F)F)cc1)c1ccccc1` (centres unmarked) [fluoxetine], the “open-arm (OA) index, change when compared to WKY receiving vehicle alone” value (Wistar Kyoto (WKY) rats [1]; MAP4343 10 mg/kg s.c., ketamine 30 mg/kg i.p.) is reported as -84%, the “open-arm (OA) index, change when compared to MAP4343-treated WKY” value (Wistar Kyoto (WKY) rats [1]) is reported as -95% and the body weight [2] is reported as “reduced body weight”. The “number of entries in the central square of OFA, change as compared to WKY receiving only vehicle” value (Wistar Kyoto (WKY) rats [3]; Fig. 5B) was “failed to significantly modify”, the “time spent in the center of open-field, change as compared to WKY receiving vehicle” value (Wistar Kyoto (WKY) rats [3]; Fig. 5C) was “did not induce any significant change” and the “locomotor activity (total distance travelled in the open-field arena), change as compared to WKY receiving vehicle” value (Wistar Kyoto (WKY) rats [4]; MAP4343 10 mg/kg s.c.) was -45%. The “locomotor activity (total distance travelled in the open-field arena), change as compared to MAP4343-treated WKY” value (Wistar Kyoto (WKY) rats [4]) was -52% and the “immobility time measured in FST, change when compared to WKY rats receiving vehicle alone” value (Wistar Kyoto (WKY) rats [5]) was “+29%”.
